Assay type in all cases: in vivo
Assay [1] concerns sedge, umbrella (small-flower umbrella sedge, Cyperus difformis). Briefly: Test B flooded paddy test. As to conditions: 250 g ai/ha, Flood; visual rating on scale of 0 to 100 where 0 is no effect and 100 is complete control; 13 to 15 d after treatment. The gist of the method: (§1)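 Plants at the 2-leaf stage were flooded to 3 cm above soil, and test compounds were applied directly into the paddy water, which was held at that depth throughout. After 13 to 15 d in a greenhouse, injury was rated visually against untreated controls on a 0–100 scale (0 no effect, 100 complete control).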

Assay [2] deals with barnyardgrass (Echinochloa crus-galli). Briefly: Test B flooded paddy test. As to conditions: 250 g ai/ha, Flood; visual rating on scale of 0 to 100 where 0 is no effect and 100 is complete control; 13 to 15 d after treatment. A digest of the protocol:
as §1

The test system of the next assay is rice (Oryza sativa). The assay is described as follows: Test B flooded paddy test. The settings on record: 250 g ai/ha, Flood; visual rating on scale of 0 to 100 where 0 is no effect and 100 is complete control; 13 to 15 d after treatment. The gist of the method: as §1
For assay [3], the system named is ducksalad (Heteranthera limosa). Briefly: Test B flooded paddy test. The settings on record: 250 g ai/ha, Flood; visual rating on scale of 0 to 100 where 0 is no effect and 100 is complete control; 13 to 15 d after treatment. The gist of the method: as §1
Assay [4] deals with wheat (winter wheat, Triticum aestivum). The assay is described as follows: Test C greenhouse herbicide test, pre- and postemergence. The gist of the method:
(§2)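 Each species was treated both before emergence, in a loam–sand soil mix, and after emergence, as 1- to 4-leaf seedlings in peat-based potting medium. Plants stayed in the greenhouse 13 to 15 d, then were scored from 0 (no effect) to 100 (complete control) relative to controls.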

In the next assay the test system is soybean (Glycine max). The assay is described as above. A digest of the protocol: as §2
The subject of assay [5] is chickweed (common chickweed, Stellaria media). Briefly: Test C greenhouse herbicide test, postemergence. A digest of the protocol:
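Postemergence foliar treatment, 1- to 4-leaf stage (2–18 cm), peat/vermiculite medium; greenhouse 13–15 d; visual rating vs controls, 0 = no effect, 100 = complete control; dash = no result.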

Setting [6] is: Postemergence, 31 g ai/ha, 0 to 100 scale (0 no effect, 100 complete control).
Setting [7] is: Postemergence, 125 g ai/ha, scale 0 to 100, 0 is no effect, 100 is complete control.
[8] abbreviates: Postemergence, 250 g ai/ha, scale 0 to 100, 0 no effect, 100 complete control, 13 to 15 d.
Where [9] appears, read: Preemergence, 31 g ai/ha, scale 0 to 100, 0 is no effect, 100 is complete control.
Setting [10] is: Preemergence, 62 g ai/ha, scale 0 to 100, 0 is no effect, 100 is complete control.
[11] abbreviates: Preemergence, 125 g ai/ha, scale 0 to 100, 0 is no effect, 100 is complete control.
Setting [12] is: Preemergence, 250 g ai/ha, scale 0 to 100 (0 no effect, 100 complete control).
The mark [13] stands for this setting: postemergence, 62 g ai/ha, scale 0 to 100, 0 no effect, 100 complete control.
The mark [14] stands for this setting: Postemergence, 31 g ai/ha, scale 0 to 100 (0 no effect, 100 complete control).

Take `COc1nn(C)c(=O)c(-c2c(C)ccc3ccccc23)c1O` [Compound 54]: the “Plant response rating, Sedge, Umbrella” value in assay [1] was 0. For the same compound, the “Plant response rating, Barnyardgrass” value in assay [2] turned out to be 0. Moreover, the “Plant response rating, Rice” value in the assay with rice (Oryza sativa) is listed as 0. Besides, in assay [3], the “Plant response rating, Ducksalad” value is listed as 0. In addition, the “Wheat plant response rating” value in assay [4] (setting [6]) was 0; in assay [4] (setting [12]), 0; in assay [4] (setting [13]), 50. For the same compound, the “Plant response rating, Wheat” value in assay [4] (setting [7]), in assay [4] (setting [8]), in assay [4] (setting [9]), in assay [4] (setting [10]) and in assay [4] (setting [11]) was 0 each time. Besides, the “Soybean plant response rating” value was 5 with soybean (Glycine max) (setting [6]), 20 in the assay with soybean (Glycine max) (setting [12]) and 5 in the assay on soybean (Glycine max) (setting [13]). In addition, the “Plant response rating, Soybean” value in the assay with soybean (Glycine max) (setting [7]) turned out to be 10; in the assay on soybean (Glycine max) (setting [8]) it was 10; with soybean (Glycine max) (setting [9]), 0; in the assay with soybean (Glycine max) (setting [10]), 90; in the assay with soybean (Glycine max) (setting [11]), 0. The “Chickweed plant response rating” value in assay [5] (setting [6]) and in assay [5] (setting [13]) was 95 in each case. In addition, the “Plant response rating, Chickweed” value in assay [5] (setting [7]) came to 95; in assay [5] (setting [8]), 100.

As for `Cc1ccc2ccccc2c1-c1c(O)c(Cl)nn(C)c1=O` [Compound 125], the “Plant response rating, Sedge, Umbrella” value in assay [1] is given as 75. The “Plant response rating, Barnyardgrass” value in assay [2] was 0. Also, the “Plant response rating, Rice” value in the assay on rice (Oryza sativa) is on record as 0. For the same compound, in assay [3], the “Plant response rating, Ducksalad” value amounted to 80. Also, the “Plant response rating, Wheat” value in assay [4] (setting [14]) came to 0; in assay [4] (setting [7]), 30; in assay [4] (setting [8]) it was 35; in assay [4] (setting [9]), 40; in assay [4] (setting [10]) it was 45; in assay [4] (setting [11]), 90. Also, the “Wheat plant response rating” value in assay [4] (setting [12]) is 90. Further, the “Plant response rating, Soybean” value with soybean (Glycine max) (setting [14]) was found to be 0; with soybean (Glycine max) (setting [7]), 10; in the assay on soybean (Glycine max) (setting [8]), 10; in the assay on soybean (Glycine max) (setting [9]) it was 0; in the assay with soybean (Glycine max) (setting [10]), 5; in the assay on soybean (Glycine max) (setting [11]), 30. In the assay on soybean (Glycine max) (setting [12]), the “Soybean plant response rating” value came to 35. For the same compound, the “Plant response rating, Chickweed” value in assay [5] (setting [14]), in assay [5] (setting [7]) and in assay [5] (setting [8]) was 95 in each case. Also, the “Chickweed plant response rating” value in assay [5] (setting [13]) amounted to 95.

As for `COc1nn(C)c(=O)c(-c2c(C)sc3ccccc23)c1O` [Compound 33], in assay [1], the “Plant response rating, Sedge, Umbrella” value was determined as 0. Also, the “Plant response rating, Barnyardgrass” value in assay [2] is 0. Besides, in the assay with rice (Oryza sativa), the “Plant response rating, Rice” value was 0. Also, the “Plant response rating, Ducksalad” value in assay [3] worked out at 0. Further, the “Wheat plant response rating” value in assay [4] (setting [6]) and in assay [4] (setting [13]) was 0 in each case. Also, the “Plant response rating, Wheat” value in assay [4] (setting [7]) and in assay [4] (setting [8]) was 0 each time. The “Soybean plant response rating” value with soybean (Glycine max) (setting [6]) and in the assay on soybean (Glycine max) (setting [13]) was 0 throughout. Moreover, the “Plant response rating, Soybean” value in the assay with soybean (Glycine max) (setting [7]) and in the assay on soybean (Glycine max) (setting [8]) was 0 throughout. In addition, the “Chickweed plant response rating” value is 85 in assay [5] (setting [6]) and 90 in assay [5] (setting [13]). Besides, the “Plant response rating, Chickweed” value in assay [5] (setting [7]) came to 90; in assay [5] (setting [8]) it was 95.

`Cc1ccc2ccccc2c1-c1c(O)c(C)nn(C)c1=O` [Compound 59]: the “Plant response rating, Sedge, Umbrella” value in assay [1] amounted to 0. Moreover, the “Plant response rating, Barnyardgrass” value in assay [2] stood at 0. Besides, the “Plant response rating, Rice” value in the assay on rice (Oryza sativa) turned out to be 0. Besides, the “Plant response rating, Ducksalad” value in assay [3] came out at 0. In addition, the “Wheat plant response rating” value in assay [4] (setting [6]) is reported as 0; in assay [4] (setting [12]) it was 85; in assay [4] (setting [13]) it was 20. For the same compound, the “Plant response rating, Wheat” value in assay [4] (setting [7]) came to 10; in assay [4] (setting [8]), 15; in assay [4] (setting [9]), 60; in assay [4] (setting [10]), 60; in assay [4] (setting [11]) it was 75. For the same compound, the results for the “Soybean plant response rating” value in the assay on soybean (Glycine max) (setting [6]), with soybean (Glycine max) (setting [12]) and in the assay on soybean (Glycine max) (setting [13]) were 0, 25 and 15, respectively. Moreover, the “Plant response rating, Soybean” value stood at 10 with soybean (Glycine max) (setting [7]); 25 in the assay on soybean (Glycine max) (setting [8]); 0 with soybean (Glycine max) (setting [9]); 0 with soybean (Glycine max) (setting [10]); 15 with soybean (Glycine max) (setting [11]). Besides, the “Chickweed plant response rating” value was determined as 90 in assay [5] (setting [6]) and 98 in assay [5] (setting [13]). The “Plant response rating, Chickweed” value in assay [5] (setting [7]) and in assay [5] (setting [8]) was 98 throughout.

As for `Cc1sc2ccc(Cl)cc2c1-c1c(OS(C)(=O)=O)c(Cl)nn(C)c1=O` [Compound 114], the “Plant response rating, Sedge, Umbrella” value in assay [1] stood at 70. The “Plant response rating, Barnyardgrass” value in assay [2] stood at 0. The “Plant response rating, Rice” value with rice (Oryza sativa) was 0. For the same compound, the “Plant response rating, Ducksalad” value in assay [3] is 50. Further, the “Plant response rating, Wheat” value in assay [4] (setting [14]) was 0; in assay [4] (setting [7]) it was 5; in assay [4] (setting [8]), 15; in assay [4] (setting [9]) it was 0; in assay [4] (setting [10]) it was 0; in assay [4] (setting [11]) it was 5. Moreover, in assay [4] (setting [12]), the “Wheat plant response rating” value came out at 35. Further, the “Plant response rating, Soybean” value with soybean (Glycine max) (setting [14]) is given as 0; in the assay with soybean (Glycine max) (setting [7]), 0; in the assay on soybean (Glycine max) (setting [8]), 5; in the assay with soybean (Glycine max) (setting [9]) it was 0; in the assay on soybean (Glycine max) (setting [10]), 0; in the assay with soybean (Glycine max) (setting [11]), 20. The “Plant response rating, Chickweed” value stood at 90 in assay [5] (setting [14]), 98 in assay [5] (setting [7]) and 98 in assay [5] (setting [8]). In assay [5] (setting [13]), the “Chickweed plant response rating” value is recorded as 95.

Regarding `Cc1nn(C)c(=O)c(-c2c(C)sc3ccccc23)c1O` [Compound 65], the “Plant response rating, Sedge, Umbrella” value in assay [1] is 0. For the same compound, the “Plant response rating, Barnyardgrass” value in assay [2] is reported as 0. Moreover, in the assay with rice (Oryza sativa), the “Plant response rating, Rice” value was determined as 0. Moreover, the “Plant response rating, Ducksalad” value in assay [3] is reported as 0. The “Wheat plant response rating” value in assay [4] (setting [6]) and in assay [4] (setting [13]) was 0 in each case. For the same compound, the “Plant response rating, Wheat” value in assay [4] (setting [7]) and in assay [4] (setting [8]) was 0 throughout. For the same compound, the “Soybean plant response rating” value in the assay on soybean (Glycine max) (setting [6]) and with soybean (Glycine max) (setting [13]) was 5 throughout. In addition, the “Plant response rating, Soybean” value in the assay with soybean (Glycine max) (setting [7]) worked out at 5; with soybean (Glycine max) (setting [8]), 10. The “Chickweed plant response rating” value stood at 55 in assay [5] (setting [6]) and 90 in assay [5] (setting [13]). The “Plant response rating, Chickweed” value in assay [5] (setting [7]) and in assay [5] (setting [8]) was 90 in each case.

Values taken from patent US10597388B2, “Pyridazinone herbicides” (FMC CORPORATION, priority 2014, dated 2020).
